Reference: US20070020298A1, “Inhalant formulation containing sulfoalkyl ether gamma-cyclodextrin and corticosteroid” (priority 2003, published 2007)
Where two headings read alike, the source gives them in different places.

How the values were obtained:
[1] = during the time period of observation, concentrations typically used to solubilize pharmaceutical formulations; cited from earlier work
[2] = Stability of mometasone furoate in aqueous SBE6.1-γ-CD solution by HPLC (Example 13); type: physicochemical; settings: for Stability by HPLC: 240 μg/mL in […] SBE-γ-CD
Description: A similar study was conducted for mometasone furoate except that a pH of 3.5 or 4.5 was used.
Mometasone furoate. Citrate buffer solutions at a pH of 3.5 and 4.5 were prepared by mixing various portions of 3 mM citric acid with 3 mM sodium citrate. […] An excess of mometasone furoate was added to the vials and equilibrated on a rocker for three days. The samples were then filtered using a PVDF 0.22 μm syringe filter. Aliquots of the solutions were placed into serum vials with rubber stoppers and aluminum crimp seal caps, and stored at 25° C. and 40° C. Control samples were stored at 5° C. […] A stability-indicating HPLC method was used.

[3] = Stability of fluticasone propionate in aqueous SBE6.1-γ-CD solution by HPLC (Example 13); type: physicochemical; settings: for Stability by HPLC: 240 μg/mL in 10% SBE-γ-CD
Description: SBE-γ-CD is suitable for stabilizing corticosteroids in aqueous solutions. A stability study was conducted using fluticasone propionate in aqueous solutions stored at 25° C. or 40° C. having a pH of 4.5 or 6.0.
Fluticasone propionate. A citrate buffer solution at a pH of 4.5 was prepared by mixing various portions of 0.003 M citric acid with 0.003 M of trisodium citrate. A phosphate buffer solution at a pH of 6.0 was prepared by mixing various portions of 0.003 M monobasic sodium phosphate with 0.003 M of dibasic sodium phosphate. These stock solutions contained 10% w/v SBE-Gamma (D.S.=6.1). An excess of fluticasone propionate was added to the vials and equilibrated on a rocker for three days. The samples were then filtered using a PVDF 0.22 μm syringe filter. Aliquots of the solutions were placed into clear glass 2 mL serum vials with aluminum crimp caps and daikyo flurotec septums, and stored at 25° C. and 40° C. Control samples were stored at 5° C. but are not reported here. HPLC analysis of the samples was performed initially, (at time 0), and after 30, 60, 90, and 120 days storage. A stability-indicating HPLC method was used.

[4] = nasal spray in aqueous sulfobutylether-β-cyclodextrin buffer, healthy volunteers; cited from earlier work

**Q.** For `CCC(=O)OCC(=O)[C@@]1(O)[C@@H](C)C[C@H]2[C@@H]3CCC4=CC(=O)C=C[C@]4(C)[C@@]3(Cl)[C@@H](O)C[C@@]21C` [Beclomethasone 21-monopropionate, beclomethasone 21-monopropionate], which “Solubility of beclomethasone form” value (0.04 M SBE3.4 γ-CD) is on record?
**A.** 0.04 M → 172.6 μg/mL

**Q.** What about the “Solubility of beclomethasone form” value (0.04 M SBE5.24 γ-CD) of the same molecule?
**A.** 0.04 M → 139.8 μg/mL

**Q.** What about the “Solubility of beclomethasone form” value (0.04 M SBE6.1 γ-CD) of the same molecule?
**A.** 0.04 M → 153.8 μg/mL

**Q.** And the “Solubility of beclomethasone form” value (0.04 M SBE6.7 β-CD)?
**A.** 0.04 M → 50.6 μg/mL

**Q.** What about the “Solubility of beclomethasone form” value (0.04 M SBE7.5 γ-CD) of the same molecule?
**A.** 0.04 M → 122.4 μg/mL

**Q.** What about the “Solubility of beclomethasone form” value (0.04 M γ-CD) of the same molecule?
**A.** 0.04 M → 9.4 μg/mL

**Q.** Which hemolytic behavior [1] does the source give for “Sulfobutyl ether β-cyclodextrin [CAPTISOL]” here?
**A.** essentially no hemolytic behavior

**Q.** With `C[C@@H]1C[C@H]2[C@@H]3CCC4=CC(=O)C=C[C@]4(C)[C@@]3(Cl)[C@@H](O)C[C@]2(C)[C@@]1(OC(=O)c1ccco1)C(=O)CCl` [Mometasone furoate, mometasone furoate] as the molecule, how does the “Stability by HPLC” value ([2]; pH = 3.5/25° C., 1 Month) read?
**A.** 99.74 Area %

**Q.** What about the “Stability by HPLC” value ([2]; pH = 3.5/25° C., 1 Week) of the same molecule?
**A.** 99.82 Area %

**Q.** And the “Stability by HPLC” value ([2]; pH = 3.5/25° C., 2 Months)?
**A.** 99.73 Area %

**Q.** And the “Stability by HPLC” value ([2]; pH = 3.5/25° C., 2 Weeks)?
**A.** 99.79 Area %

**Q.** What about the “Stability by HPLC” value ([2]; pH = 3.5/25° C., 3 Months) of the same molecule?
**A.** 99.68 Area %

**Q.** And the “Stability by HPLC” value ([2]; pH = 3.5/25° C., 6 Months)?
**A.** 99.36 Area %

**Q.** And the “Stability by HPLC” value ([2]; pH = 3.5/25° C., Initial)?
**A.** 99.72 Area %

**Q.** What about the “Stability by HPLC” value ([2]; pH = 3.5/40° C., 1 Month) of the same molecule?
**A.** 99.10 Area %

**Q.** And the “Stability by HPLC” value ([2]; pH = 3.5/40° C., 1 Week)?
**A.** 99.72 Area %

**Q.** And the “Stability by HPLC” value ([2]; pH = 3.5/40° C., 2 Months)?
**A.** 98.56 Area %

**Q.** What about the “Stability by HPLC” value ([2]; pH = 3.5/40° C., 2 Weeks) of the same molecule?
**A.** 99.55 Area %

**Q.** And the “Stability by HPLC” value ([2]; pH = 3.5/40° C., 3 Months)?
**A.** 97.97 Area %

**Q.** And the “Stability by HPLC” value ([2]; pH = 3.5/40° C., 6 Months)?
**A.** 94.97 Area %

**Q.** And the “Stability by HPLC” value ([2]; pH = 3.5/40° C., Initial)?
**A.** 99.72 Area %

**Q.** What about the “Stability by HPLC” value ([2]; pH = 4.5/40° C., 1 Month) of the same molecule?
**A.** 99.19 Area %

**Q.** What about the “Stability by HPLC” value ([2]; pH = 4.5/40° C., 1 Week) of the same molecule?
**A.** 99.72 Area %

**Q.** What about the “Stability by HPLC” value ([2]; pH = 4.5/40° C., 2 Months) of the same molecule?
**A.** 98.65 Area %

**Q.** And the “Stability by HPLC” value ([2]; pH = 4.5/40° C., 2 Weeks)?
**A.** 99.57 Area %

**Q.** What about the “Stability by HPLC” value ([2]; pH = 4.5/40° C., 3 Months) of the same molecule?
**A.** 97.85 Area %

**Q.** What about the “Stability by HPLC” value ([2]; pH = 4.5/40° C., 6 Months) of the same molecule?
**A.** 96.01 Area %

**Q.** What about the “Stability by HPLC” value ([2]; pH = 4.5/40° C., Initial) of the same molecule?
**A.** 99.76 Area %

**Q.** What about the “Stability by HPLC” value ([2]; pH = 4.5 @ 25° C., 1 Month) of the same molecule?
**A.** 99.73 Area %

**Q.** And the “Stability by HPLC” value ([2]; pH = 4.5 @ 25° C., 1 Week)?
**A.** 99.82 Area %

**Q.** What about the “Stability by HPLC” value ([2]; pH = 4.5 @ 25° C., 2 Months) of the same molecule?
**A.** 99.71 Area %

**Q.** What about the “Stability by HPLC” value ([2]; pH = 4.5 @ 25° C., 2 Weeks) of the same molecule?
**A.** 99.81 Area %

**Q.** And the “Stability by HPLC” value ([2]; pH = 4.5 @ 25° C., 3 Months)?
**A.** 99.62 Area %

**Q.** What about the “Stability by HPLC” value ([2]; pH = 4.5 @ 25° C., 6 Months) of the same molecule?
**A.** 99.47 Area %

**Q.** And the “Stability by HPLC” value ([2]; pH = 4.5 @ 25° C., Initial)?
**A.** 99.76 Area %

**Q.** And the T90 ([2]; both pH's (3.5 and 4.5) at 25° C.)?
**A.** exceed two years

**Q.** And the estimated shelf-life ([2]; mometasone furoate formulation of the invention)?
**A.** greater than two years

**Q.** What about the “T90, stable for” value ([2]; pH 4.5, 25° C.) of the same molecule?
**A.** six to eight years

**Q.** Which “Solubility of beclomethasone form” value (0.04 M SBE3.4 γ-CD) does the source give for `CCC(=O)O[C@]1(C(=O)CO)[C@@H](C)C[C@H]2[C@@H]3CCC4=CC(=O)C=C[C@]4(C)[C@@]3(Cl)[C@@H](O)C[C@@]21C` [Beclomethasone 17-monopropionate, beclomethasone 17-monopropionate] here?
**A.** 0.04 M → 10621.6 μg/mL

**Q.** What about the “Solubility of beclomethasone form” value (0.04 M SBE5.24 γ-CD) of the same molecule?
**A.** 0.04 M → 9500.8 μg/mL

**Q.** And the “Solubility of beclomethasone form” value (0.04 M SBE6.1 γ-CD)?
**A.** 0.04 M → 11666.9 μg/mL

**Q.** And the “Solubility of beclomethasone form” value (0.04 M SBE6.7 β-CD)?
**A.** 0.04 M → 6799.6 μg/mL

**Q.** What about the “Solubility of beclomethasone form” value (0.04 M SBE7.5 γ-CD) of the same molecule?
**A.** 0.04 M → 8539.1 μg/mL

**Q.** And the “Solubility of beclomethasone form” value (0.04 M γ-CD)?
**A.** 0.04 M → 136.9 μg/mL

**Q.** Which results are given for `CCC(=O)O[C@]1(C(=O)SCF)[C@H](C)C[C@H]2[C@@H]3C[C@H](F)C4=CC(=O)C=C[C@]4(C)[C@@]3(F)[C@@H](O)C[C@@]21C` [Fluticasone propionate, fluticasone propionate]?
**A.** Stability by HPLC ([3]; pH = 4.5/25° C., 1 Month): 97.88 Area %; Stability by HPLC ([3]; pH = 4.5/25° C., 2 Months): 98.15 Area %; Stability by HPLC ([3]; pH = 4.5/25° C., 3 Months): 97.74 Area %; Stability by HPLC ([3]; pH = 4.5/25° C., 4 Months): 97.36 Area %; Stability by HPLC ([3]; pH = 4.5/25° C., Initial): 97.99 Area %; Stability by HPLC ([3]; pH = 4.5/40° C., 1 Month): 97.46 Area %; Stability by HPLC ([3]; pH = 4.5/40° C., 2 Months): 97.75 Area %; Stability by HPLC ([3]; pH = 4.5/40° C., 3 Months): 97.41 Area %; Stability by HPLC ([3]; pH = 4.5/40° C., 4 Months): 96.56 Area %; Stability by HPLC ([3]; pH = 4.5/40° C., Initial): 97.84 Area %; change in the amount of fluticasone propionate ([3]; after a period of 4 months in SBE-γ-CD solution): little to no change; T90 ([3]; at both pHs (4.5 and 6.0)): greater than five years; estimated shelf-life ([3]; fluticasone propionate formulation of the invention): greater than two years

**Q.** Which side effects [4] does the source give for `Cc1ncc2n1-c1ccc(Cl)cc1C(c1ccccc1F)=NC2` [midazolam] here?
**A.** No serious side effects
